BindingDB's records for doi:10.1016/j.bmc.2019.115091 (Kyowa Kirin, 2019)

Test: Inhibition of chemR23 expressed in human CAL1 cells assessed as reduction in chemerin-induced chemotaxis incubated for 4 hrs by cell counting based CellTiter-Glo assay

SMILES: CCCCN(c1nc2cc(C(=O)NC)ccc2o1)[C@H](C)c1ccc(-c2ccccc2-c2nnn[nH]2)cc1
- IC50: 0.38 µM
